The test system of the data set is C. elegans VP596 worm health composite score, 20-22 h. Briefly: whole-worm cytotoxicity of SKN-1 inhibitor analogs – whole organism, strain VP596, composite health score, round 2, cytotoxicity control for SKN-1 inhibitor project, SAR follow-up (AID 652281).

Active and inactive are the calls of the source.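 Rule for the calls: active = compounds toxic to worms, with a half-maximal toxicity dose of 25 µM or lower; inactive = the rest.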

Broadly, the IC50 is the concentration needed to halve the response being measured. `CCOc1cc(CNC2CC2)cc(Cl)c1OCc1ccc(Br)cc1`: the IC50 is > 64 µM (inactive). With `COc1cc(CNC2CCCC2)cc(Cl)c1OCc1ccc(Cl)cc1`, the IC50 is > 64 µM (inactive). For `CCOc1cc(CN2CCOCC2)cc(Cl)c1OCc1ccc(F)cc1` the value was > 64 µM (inactive); for `CCCNCc1cc(Cl)c(OCc2ccc(Cl)cc2)c(OCC)c1`, > 64 µM (inactive); for `CCOc1cc(CN2CCOCC2)cc(Cl)c1OCc1ccc(Cl)cc1`, > 64 µM (inactive). `CCOc1cc(CN2CCCC2)cc(Cl)c1OCc1ccc(Cl)cc1`: the IC50 is > 64 µM (inactive). Take `CCOc1cc(CN2CCCC2)cc(Cl)c1OCc1ccc(F)cc1`: the IC50 was > 64 µM (inactive). As to `CCOc1cc(CN(C)C2CCCC2)cc(Cl)c1OCc1ccc(Cl)cc1`, the IC50 is > 64 µM (inactive). Then `Clc1ccc(COc2c(Cl)cc(CNC3CCCC3)cc2Cl)cc1`, with > 64 µM (inactive); and `CCOc1cc(CN2CCN(C)CC2)cc(Cl)c1OCc1ccc(Cl)cc1`, with > 64 µM (inactive); and `CCOc1cc(CNC2CC2)cc(Cl)c1OCc1ccc(Cl)cc1F`, with > 64 µM (inactive). For `CCOc1cc(CNC2CCCC2)cc(Cl)c1OCc1ccc(Br)cc1` the value was > 64 µM (inactive); for `CCOc1cc(CN(C(C)=O)C2CCCC2)cc(Cl)c1OCc1ccc(Cl)cc1`, > 64 µM (inactive). Turning to `COc1cc(CNC2CCCC2)cc(Br)c1OCc1ccc(Cl)cc1`, the IC50 is > 64 µM (inactive). On to `CCOc1cc(CN2CCCCC2)cc(Cl)c1OCc1ccc(Cl)cc1`, for which the IC50 was > 64 µM (inactive). Then `CCOc1cc(CNC2CC2)cc(Cl)c1OCc1ccc(Cl)cc1`, with > 64 µM (inactive); and `C#CCNCc1cc(Cl)c(OCc2ccc(Cl)cc2)c(OCC)c1`, with > 64 µM (inactive); and `CCOc1cc(CNC2CCCC2)cc(Cl)c1OCc1ccc(C#N)cc1`, with > 64 µM (inactive). As to `COc1cc(CNC2CCCC2)cc(F)c1OCc1ccc(Cl)cc1`, the IC50 was > 64 µM (inactive). In the case of `CCOc1cc(CNCC2CC2)cc(Cl)c1OCc1ccc(Cl)cc1`, the IC50 is > 64 µM (inactive). For `C=CCNCc1cc(Cl)c(OCc2ccc(Cl)cc2)c(OCC)c1`, the IC50 was > 64 µM (inactive). For `Cc1cc(CNC2CCCC2)cc(C)c1OCc1ccc(Cl)cc1` the value was > 64 µM (inactive); for `CCOc1cc(CNC)cc(Cl)c1OCc1ccc(Cl)cc1`, > 64 µM (inactive); for `CCOc1cc(CN2CCN(C)CC2)cc(Cl)c1OCc1ccc(F)cc1`, > 64 µM (inactive). In the case of `CCOc1cc(CNC2CC2)cc(Cl)c1OCc1ccc(C#N)cc1`, the IC50 was > 64 µM (inactive). `CCOc1cc(CN2CCCCC2)cc(Cl)c1OCc1ccc(F)cc1`: the IC50 is > 64 µM (inactive).

Take `CCOc1cc(CNC2CCCC2)cc(Cl)c1OCc1ccc(Cl)cc1F`: the IC50 was > 64 µM (inactive).
